| SMILES | logP |
| --- | --- |
| O=[N+]([O-])c1ccccc1O | 1.79 |
| CCc1ccccc1O | 2.47 |
| C=CBr | 1.57 |
| NCCc1c[nH]c2ccccc12 | 1.55 |
| c1ccc2sccc2c1 | 3.12 |
| OCc1ccccc1O | 0.73 |
| NC(=O)NO | -1.8 |
| Nc1cccc(O)c1 | 0.21 |
| CN(C)C | 0.16 |
| CCCCNC(=O)NS(=O)(=O)c1ccc(N)cc1 | 1.01 |
| O=C(O)c1ccccc1Cl | 2.05 |
| Cc1cc2ccccc2[nH]1 | 2.53 |
| NC(=O)C(c1ccccc1)c1ccccn1 (configuration not stated) | 0.83 |
| Oc1ccccn1 | -0.58 |
| COc1ccc(NC(C)=O)cc1 | 1.03 |
| Cc1ccc(Cl)cc1 | 3.33 |
| CC(=O)C(C#N)=NNc1ccc([N+](=O)[O-])cc1[N+](=O)[O-] | 3.4 |
| CCCNC(C)CC (configuration not stated) | 1.91 |
| CC(C)CN | 0.73 |
| CCC=Cc1ccccc1[N+](=O)[O-] | 2.86 |
| c1cnccn1 | -0.26 |
| Nc1ccc(S(=O)(=O)Nc2ncccn2)cc1 | -0.09 |
| NC(=O)Cc1cccnc1 | -0.71 |

| SMILES | logP |
| --- | --- |
| Cc1ccc(C)c2c(C)cccc12 | 4.9 |
| Nc1ccc(Cl)cc1 | 1.83 |
| O=C(O)c1ccc(O)cc1 | 1.58 |
| CCCc1cc(NC(C)=O)cc(CCC)c1O | 3.16 |
| Cc1cccc(Nc2ccccc2C(=O)O)c1C | 5.12 |
| O=[N+]([O-])c1cc[n+]([O-])c2ccccc12 | 1.09 |
| Cn1cnc2c1c(=O)[nH]c(=O)n2C | -0.78 |
| CC(C)CO | 0.76 |
| NS(=O)(=O)c1ccc(Cl)c(Cl)c1 | 1.44 |
| BrCBr | 1.7 |
| O=[N+]([O-])c1ccccc1 | 1.85 |
| CCCN(CCC)CCC | 2.79 |
| NNC(=O)c1ccnc(F)c1 | -0.11 |
| CC(=O)c1cccc(OCC(=O)O)c1 | 0.98 |
| CN(C)C(=O)Nc1ccccc1 | 0.98 |
| CCCCN | 0.97 |
| c1ccc2[nH]ncc2c1 | 1.77 |
| O=C1CN=C(c2ccccc2)c2cc(Cl)ccc2N1CC1CC1 | 3.73 |
| NC(=O)CCCc1ccccn1 | -0.09 |
| O/N=C/c1ccccc1 | 1.75 |
| CC(C)n1nnc2ccccc21 | 1.98 |
| CNS(=O)(=O)c1ccc(N)cc1 | -0.01 |
| Brc1ccncc1 | 1.54 |

| SMILES | logP |
| --- | --- |
| COC1C(Cl)C(Cl)C(Cl)C(Cl)C1OC (configuration not stated) | 2.82 |
| NS(=O)(=O)c1ccc(Cl)cc1 | 1.15 |
| C=CCOc1ccccc1OCC(O)CNC(C)C (configuration not stated) | 2.1 |
| N#Cc1cccc(OCC(=O)O)c1 | 0.95 |
| Oc1c(F)c(F)c(F)c(F)c1F | 3.23 |
| CC[C@H](C)N | 0.74 |
| CCC(=O)c1cccc(OC(=O)NC)c1 | 1.49 |
| CC(C)c1nnc(N2CCOCC2)n(N)c1=O | 0.49 |
| NC(=O)CCCc1cccnc1 | -0.08 |
| Cc1ccc2cc(C)ccc2c1 | 4.31 |
| COc1ccccc1C(=O)O | 1.59 |
| COC(=O)C(C#N)=NNc1ccccc1 | 2.59 |
| CC(=O)c1ccc(S(=O)(=O)NC(=O)NC2CCCCC2)cc1 | 2.44 |
| CCN(CC)CCNC(=O)c1ccc(N)cc1 | 0.88 |
| c1ccsc1 | 1.81 |
| c1ccc(-c2ccccc2)cc1 | 3.98 |
| Nc1ccn([C@H]2C[C@H](O)[C@@H](CO)O2)c(=O)n1 | -1.77 |
| CCC1(CC)C(=O)NC(=O)NC1=O | 0.65 |
| CCCC(CO)n1cnc2c(N)ncnc21 (configuration not stated) | 0.66 |
| Nc1nc(N)c2ncn([C@H]3C[C@H](O)[C@@H](CO)O3)c2n1 | -0.52 |
| CC(Oc1ccccc1)C(=O)NC1C(=O)N2C1SC(C)(C)C2C(=O)O (configuration not stated) | 2.2 |
| CC(C)(C)NCC(O)COc1nsnc1N1CCOCC1 (configuration not stated) | 1.83 |
| CCC1(c2ccccc2)C(=O)NC(=O)NC1=O | 1.47 |

| SMILES | logP |
| --- | --- |
| CNC(=O)Oc1ccccc1OC(C)C | 1.52 |
| O=[N+]([O-])c1ccc2c(c1)c([N+](=O)[O-])cc[n+]2[O-] | 0.9 |
| COc1ccc(CC(C)N)c(OC)c1 (configuration not stated) | 1.75 |
| CCN(CC)CC | 1.45 |
| Cc1ccnc(N)c1 | 0.56 |
| CCCC | 2.89 |
| O=Nc1c(O)ccc2ccccc12 | 2.28 |
| c1ccc2c(c1)CCC2 | 3.18 |
| OCc1ccc(Cl)cc1 | 1.96 |
| CCN1CCCC1CNC(=O)c1cc(S(=O)(=O)CC)ccc1OC (configuration not stated) | 1.06 |
| Clc1ccccn1 | 1.22 |
| O=C(O)c1cc(I)cc(I)c1O | 4.56 |
| O=C(O)c1ccc(I)cc1 | 3.02 |
| COC(=O)C(C#N)=NNc1cc(C(F)(F)F)ccc1Cl | 4.42 |
| O=[N+]([O-])c1cccc2ccc[n+]([O-])c12 | 0.04 |
| COc1nnc(C(C)C)c(=O)n1N | -0.06 |
| O=C(O)COC1Cc2ccccc2C1 | 2.33 |
| NCCCCc1ccccc1 | 2.4 |
| Cc1ccccc1S(N)(=O)=O | 0.84 |
| CC1=C(C(=O)Nc2ccccc2)SCCO1 | 2.14 |
| CC(C)=O | -0.24 |
| CC1(C)SC2C(NC(=O)C(O)c3ccccc3)C(=O)N2C1C(=O)O (configuration not stated) | 1.4 |
| O=[N+]([O-])/C=C/c1ccccc1 | 2.11 |

| SMILES | logP |
| --- | --- |
| O=C(O)Cc1ccc(Cl)cc1 | 2.12 |
| CCCCC(C)=O | 1.38 |
| COC(=O)C(C#N)=NNc1cccc(Cl)c1 | 3.6 |
| Cc1ncc(CO)c(CN)c1O | -1.3 |
| CCOC(=O)c1cccnc1 | 1.32 |
| CC(=O)C=Cc1ccccc1 | 2.07 |
| CNC1(c2ccccc2Cl)CCCCC1=O (configuration not stated) | 2.18 |
| O=[N+]([O-])c1cccc2cccnc12 | 1.4 |
| Clc1ccc(-c2ccccc2)cc1 | 4.61 |
| COc1cccc(O)c1 | 1.34 |
| CCCCCO | 1.51 |
| Cc1cnc(NS(=O)(=O)c2ccc(N)cc2)nc1 | 0.34 |
| O=C1CC2OCC=C3CN4CC[C@]56c7ccccc7N1C5[C@H]2[C@H]3C[C@H]46 (some centres not stated) | 1.93 |
| Cc1ccccc1O | 1.95 |
| COC(=O)c1ccccc1O | 2.55 |
| Nc1ccc(C(=O)NCC(=O)O)cc1 | -0.89 |
| CN(C)C(=O)COc1ccccc1 | 0.8 |
| CC(=O)c1ccc(OCC(=O)O)cc1 | 0.87 |
| CCCCOCCO | 0.83 |
| Brc1nc(Br)c(Br)[nH]1 | 1.96 |
| Nc1nc2[nH]nnc2c(=O)[nH]1 | -0.71 |
| O=C1OC(=O)c2ccccc21 | 1.6 |
| Nc1nc2c(ncn2COCCO)c(=O)[nH]1 | -1.56 |

| SMILES | logP |
| --- | --- |
| c1cc2c3c(cccc3c1)CC2 | 3.92 |
| NC(=O)/C=C/c1ccccc1 | 1.43 |
| O=[N+]([O-])c1ccc2ccc[n+]([O-])c2c1 | 0.36 |
| O=C(Nc1ccccc1)c1ccccc1O | 3.27 |
| CC/C(=C/c1ccccc1)[N+](=O)[O-] | 2.86 |
| c1ncncn1 | -0.73 |
| NS(=O)(=O)c1ccccc1 | 0.31 |
| NC(=O)c1cc([N+](=O)[O-])cc([N+](=O)[O-])c1 | 0.83 |
| CNC(=O)Oc1ccc(C)c(C)c1 | 2.09 |
| O=C(O)c1cccc(I)c1 | 3.13 |
| O=c1cccccc1O | 0.53 |
| N#Cc1ccc(C(=O)O)cc1 | 1.56 |
| NNc1ccccc1 | 1.25 |
| Cc1c(Cl)cccc1Nc1ccccc1C(=O)O | 5.17 |
| Cc1c[nH]c2ccccc12 | 2.6 |
| CC(=O)C(C#N)=NNc1ccccc1Cl | 4 |
| CCCSc1nnc(C(C)C)c(=O)n1N | 2.12 |
| Cc1cn([C@H]2C[C@H](F)[C@@H](CO)O2)c(=O)[nH]c1=O | -0.28 |
| Cc1cn([C@H]2C=C[C@@H](CO)O2)c(=O)[nH]c1=O | -0.72 |
| CN(C)c1ccc(S(N)(=O)=O)cc1 | 0.76 |
| CN(C)CC/C=C1\c2ccccc2Sc2ccc(Cl)cc21 | 5.18 |
| NC(=O)CCCNC(=C1C=C(F)C=CC1=O)c1ccc(Cl)cc1 | 3.06 |
| NC(=O)c1cccnc1 | -0.37 |

| SMILES | logP |
| --- | --- |
| COc1ccccc1NC(C)=O | 0.67 |
| CC(C)N | 0.26 |
| O=[N+]([O-])c1ccc(N=C=S)cc1 | 3.62 |
| C/C=N/O | -0.13 |
| Nc1nc(N)c2nc(-c3ccccc3)c(N)nc2n1 | 0.98 |
| NC(=O)c1ccccc1O | 1.28 |
| NC(N)=O | -2.11 |
| CCCCCC(C)=O | 1.98 |
| OCCCCCc1ccncc1 | 1.39 |
| OC1CCCCC1 | 1.23 |
| Cc1ccc2c(c1)c([N+](=O)[O-])cc[n+]2[O-] | 1.43 |
| C1CC1 | 1.72 |
| CNC(=O)Oc1ccc(C)cc1 | 1.66 |
| CC(=O)Nc1ccc(I)cc1 | 2.71 |
| C#C[C@]1(O)CC[C@H]2[C@@H]3CCc4cc(O)ccc4[C@H]3CC[C@@]21C | 3.67 |
| CCCCCCCCCCCC(=O)O | 4.6 |
| Nc1ncnc2c1ncn2[C@@H]1O[C@H](CO)[C@@H](O)[C@H]1O | -1.05 |
| CC(C)[N+](=O)[O-] | 0.93 |
| Nc1cccc(Cl)c1 | 1.88 |
| Nc1ccccc1O | 0.62 |
| COC(=O)C(C#N)=NNc1cc(Cl)c(Cl)c(Cl)c1 | 5.22 |
| O=C(O)c1ccc(Oc2ccccc2)cc1 | 3.91 |
| CNc1ccc(S(N)(=O)=O)cc1 | 0.08 |

| SMILES | logP |
| --- | --- |
| O=C(O)c1ccccc1O | 2.26 |
| C=CCC1(CCCC)C(=O)NC(=O)NC1=O | 2.31 |
| Nc1ccc(Cl)c(Cl)c1 | 2.69 |
| Nc1ccccn1 | 0.48 |
| COc1ccccc1OCC(=O)O | 0.98 |
| Oc1c(Br)cc(Br)c(O)c1Br | 4.37 |
| Nc1ccc2ncccc2c1 | 1.28 |
| c1ccc(-c2cccc(-c3ccccc3)n2)cc1 | 4.82 |
| Cc1ccc(OCC(=O)O)cc1 | 1.86 |
| N#Cc1cccc([N+](=O)[O-])c1 | 1.17 |
| CCc1ccccc1OCC(=O)O | 2.53 |
| NNC(=O)c1ccnc(Cl)c1 | 0.11 |
| COC(=O)C(C#N)=NNc1cc(Cl)c(Cl)cc1Cl | 5.15 |
| CC(=O)CC(C)=O | 0.4 |
| O=C(O)COc1ccccc1F | 1.39 |
| O=C(NC(O)Cc1ccc([N+](=O)[O-])cc1)C(F)(F)F (configuration not stated) | 1.46 |
| CCCl | 1.43 |
| CN(c1ccccc1)c1ccccc1 | 3.9 |
| Cc1cn([C@H]2CC[C@@H](CO)O2)c(=O)[nH]c1=O | -0.6 |
| NC(=O)c1ncccc1O | 0.65 |
| O=C(O)c1cccc(Br)c1 | 2.87 |
